Reference: patent US20100168175A1, “ATPENINS” (priority 2008, published 2010)
Where two headings read alike, the source gives them in different places.

What was measured:
[1] = system: Phytophthora infestans; test: whole plant or invertebrate; assay type: in vivo; conditions: in Solanum lycopersicum, 168 h, read-out: Efficacy in %
[2] = system: Alternaria solani; test: Alternaria test (tomato)/protective; assay type: in vivo; conditions: young tomato plants, protective spray, application rate 500 (in ppm g/ha [sic]), evaluation 7 days after inoculation; 0% = control, 100% = no infection
[3] = system: Sphaerotheca fuliginea; test: Sphaerotheca test (cucumber)/protective; assay type: in vivo; conditions: Podosphaera fuliginea, 168 h, read-out: Efficacy in %
[4] = log P by HPLC on a reversed-phase column (C18), EEC Directive 79/831 Annex V.A8; assay type: physicochemical; conditions: reversed-phase HPLC column (Kromasil 100 C18), H3PO4
Experimental: The stated log P values were determined in accordance with EEC Directive 79/831 Annex V.A8 by HPLC (High Performance Liquid Chromatography) on a reversed-phase column (C18).
HP1100 LC System (UV/DAD); Kromasil 100 C18, 3.5 μm, 75×2.0 mm; mobile phase A: acetonitrile (0.1% formic acid); mobile phase B: water (0.09% formic acid); linear gradient from 10% acetonitrile to 95% acetonitrile over 8.5 min, then 95% acetonitrile for a further 3.5 min; oven temperature 43° C.; flow rate: 0.5 ml/min
HP1100 LC System (UV/DAD); Kromasil 100 C18, 3.5 μm, 70×3.1 mm; mobile phase A: acetonitrile (0.1% phosphoric acid); mobile phase B: water (0.1% phosphoric acid); linear gradient from 10% acetonitrile to 95% acetonitrile over 8.5 min, then 95% acetonitrile for a further 3 min; oven temperature 43° C.; flow rate: 1 ml/min

[5] = young cucumber plants, protective spray, application rate 100 g/ha, evaluation 7 days after inoculation, 0% = control, 100% = no infection

| Compound | pest or weed control at 500 ppm [1] [%] | Efficacy in % [2] [%] | other results |
| --- | --- | --- | --- |
| COc1[nH]c(=O)c(C(=O)C2CC2)c(O)c1OC [Compound I-130] | 56 | – | – |
| COc1[nH]c(=O)c(C(=O)c2ccc(Cl)cc2)c(O)c1OC [Compound I-122] | 56 | – | – |
| CCCC1CCC(C(=O)c2c(O)c(OC)c(OC)n(Cc3ccc(OC)cc3)c2=O)CC1 (stereo not drawn) [Compound I-184] | – | 56 | – |
| CCCCCCC(CCCC)C(=O)c1c(O)c(OC)c(OC)[nH]c1=O (stereo not drawn) [Compound I-212] | – | 71 | – |
| COc1ccc(Cn2c(OC)c(OC)c(O)c(C(=O)C(C)C/C=C\COCc3ccccc3)c2=O)cc1 (stereo not drawn) [Compound I-157] | – | 50 | – |
| COc1ccc(Cn2c(O)c(OC)c(O)c(C(=O)C(C)CC(F)(F)F)c2=O)cc1 (stereo not drawn) [Compound I-180] | 50 | – | – |
| CCCCC(C)C(=O)c1c(O)c(OC)c(OC)[nH]c1=O (stereo not drawn) [Compound I-230] | – | 70 | pest or weed control at 100 g/ha [3]: 98% |
| COc1c(O)c(C(=O)C(C)C)c(=O)n(Cc2ccccc2)c1OC [Compound I-108] | – | 67 | – |
| CCCC(C)c1ccccc1NC(=O)c1c(O)c(OC)c(OC)[nH]c1=O (stereo not drawn) [Compound I-139] | 60 | – | – |
| COc1ccc(Cn2c(OC)c(OC)c(O)c(C(=O)C(C)Cc3c(Cl)cccc3Cl)c2=O)cc1 (stereo not drawn) [Compound I-172, 3-[3-(2,6-Dichlorophenyl)-2-methylpropanoyl]-4-hydroxy-5,6-dimethoxy-1-(4-methoxybenzyl)pyridin-2(1H)-one] | 71 | – | – |
| COc1[nH]c(=O)c(C(=O)c2ccc(C)cc2)c(O)c1OC [Compound I-55] | 56 | – | – |
| C/C=C/CC(C)C(=O)c1c(O)c(OC)c(OC)[nH]c1=O (stereo not drawn) [Compound I-1, 4-Hydroxy-5,6-dimethoxy-3-[(4E)-2-methylhex-4-enoyl]pyridin-2(1H)-one] | 0 | 0 | pest or weed control at 100 g/ha [3]: 77% |
| COc1ccc(Cn2c(O)c(OC)c(O)c(C(=O)C3CCC(C)CC3)c2=O)cc1 (stereo not drawn) [Compound I-101] | 78 | – | – |
| COc1ccc(Cn2c(OC)c(OC)c(O)c(C(=O)CCCCc3ccccc3)c2=O)cc1 [Compound I-28] | 50 | – | – |
| CCCCCC(C)C(=O)c1c(O)c(OC)c(O)n(Cc2ccc(OC)cc2)c1=O (stereo not drawn) [Compound I-178, 4,6-Dihydroxy-5-methoxy-1-(4-methoxybenzyl)-3-(2-methylheptanoyl)pyridin-2(1H)-one] | 60 | – | – |
| COc1[nH]c(=O)c(C(=O)C(C)CC(C)Cc2ccccc2)c(O)c1OC (stereo not drawn) [Compound I-160] | – | 70 | – |
| COc1[nH]c(=O)c(C(=O)C2CCC(C)CC2)c(O)c1OC (stereo not drawn) [Compound I-121] | – | 56 | – |
| COc1ccc(Cn2c(OC)c(OC)c(O)c(C(=O)CCc3ccc(Oc4ccc(Cl)cc4)cc3)c2=O)cc1 [Compound I-89] | 50 | – | chromatographic logP [4]: 5.75 |
| CCCC(C)C(=O)c1c(O)c(OC)c(OC)[nH]c1=O (stereo not drawn) [Compound I-129] | 56 | – | pest or weed control at 100 g/ha [3]: 98% |
| COc1[nH]c(=O)c(C(=O)CCc2ccccc2C)c(O)c1OC [Compound I-72] | – | 50 | – |
| COc1[nH]c(=O)c(C(=O)C(C)CCC(C)(C)C)c(O)c1OC (stereo not drawn) [Compound I-228] | – | 80 | – |

| Compound | pest or weed control at 500 ppm [1] [%] | Efficacy in % [2] [%] | other results |
| --- | --- | --- | --- |
| COc1[nH]c(=O)c(C(=O)C(C)CC2CCC(C(C)C)CC2)c(O)c1OC (stereo not drawn) [Compound I-164] | – | 90 | chromatographic logP [4]: 5.41 |
| COc1ccc(Cn2c(OC)c(OC)c(O)c(C(=O)Cc3ccc(Br)cc3)c2=O)cc1 [Compound I-107] | 78 | – | – |
| COc1ccc(Cn2c(OC)c(OC)c(O)c(C(=O)Nc3ccc(-c4ccccc4)cc3)c2=O)cc1 [Compound I-75] | – | 70 | – |
| CCC(C)CC(C)C(=O)c1c(O)c(OC)c(OC)[nH]c1=O (stereo not drawn) [Compound I-219] | – | 50 | – |
| COc1[nH]c(=O)c(C(=O)C(C)c2ccc(Cl)cc2)c(O)c1OC (stereo not drawn) [Compound I-204] | – | – | pest or weed control at 100 g/ha [3, 5]: 85% |
| COc1[nH]c(=O)c(C(=O)C(C)C2CCCCC2)c(O)c1OC (stereo not drawn) [Compound I-149] | – | 80 | – |
| COc1[nH]c(=O)c(C(=O)C(C)CCC(C)C)c(O)c1OC (stereo not drawn) [Compound I-153] | – | 90 | – |
| CCC(CC)CC(C)C(=O)c1c(O)c(OC)c(OC)[nH]c1=O (stereo not drawn) [Compound I-74] | – | – | pest or weed control at 100 g/ha [3]: 100% |
| COc1ccc(Cn2c(O)c(OC)c(O)c(C(=O)C3CCCC3)c2=O)c(OC)c1 [Compound I-69] | 50 | – | – |
| COc1ccc(Cn2c(OC)c(OC)c(O)c(C(C)=O)c2=O)c(OC)c1 [Compound I-66] | – | 94 | – |
| COc1[nH]c(=O)c(C(=O)C(C)CCCc2ccccc2)c(O)c1OC (stereo not drawn) [Compound I-158] | 60 | 50 | – |
| COc1[nH]c(=O)c(C(=O)C(C)Cc2ccc(C(F)(F)F)cc2)c(O)c1OC (stereo not drawn) [Compound I-141] | 70 | 80 | – |
| COc1ccc(Cn2c(O)c(OC)c(O)c(C(=O)C3CCCCCC3)c2=O)cc1 [Compound I-111] | 89 | – | – |
| CCC(=O)c1c(O)c(OC)c(OC)n(Cc2ccc(OC)cc2)c1=O [Compound I-48, 4-Hydroxy-5,6-dimethoxy-1-(4-methoxybenzyl)-3-propanoylpyridin-2(1H)-one] | 63 | 57 | – |
| COc1ccc(Cn2c(OC)c(OC)c(O)c(C(=O)c3ccc(C)cc3)c2=O)cc1 [Compound I-49] | 50 | – | – |
| COc1[nH]c(=O)c(C(=O)C(C)CC(C)C)c(O)c1OC (stereo not drawn) [Compound I-138, 3-(2,4-Dimethylpentanoyl)-4-hydroxy-5,6-dimethoxypyridin-2(1H)-one] | – | – | pest or weed control at 100 g/ha [3, 5]: 96% |
| COc1[nH]c(=O)c(C(=O)C(C)CCC2CCCC2)c(O)c1OC (stereo not drawn) [Compound I-240] | – | – | pest or weed control at 100 g/ha [3, 5]: 98% |
| COc1[nH]c(=O)c(C(=O)C(C)CC(F)(F)F)c(O)c1OC (stereo not drawn) [Compound I-197] | – | – | pest or weed control at 100 g/ha [3, 5]: 100% |
| COc1[nH]c(=O)c(C(=O)c2ccc3ccccc3c2)c(O)c1OC [Compound I-221] | 80 | 93 | – |
| COc1ccc(Cn2c(OC)c(OC)c(O)c(C(=O)C3CC=CCC3)c2=O)c(OC)c1 (stereo not drawn) [Compound I-110] | 78 | – | – |
